# Results published in patent publication US9149475B2, “Protein kinase C inhibitors and uses thereof” (Rigel Pharmaceuticals, Inc., priority 2009, dated 2015).
# Test system: Human primary T cells
# Test: IL-2 ELISA, human primary T cell, anti-CD3+CD28+ (whole cell assay)
# Format: cell-based
# Settings: Homo sapiens, T-cell, 24 h, human primary T cells stimulated with anti-CD3 + anti-CD28, 24 hours
# Summary of the method: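 IL-2 secreted over 24 h at 37° C was quantified by ELISA after plate-bound αCD3 (1 μg/ml) and αCD28 (5 μg/ml) stimulation, or PMA (0.5 ng/ml) with ionomycin (0.1 μM) as counter-screen. Cells were IL-2-starved primary human T cells, expanded from volunteer PBMC and exposed to compound for 1 hr beforehand.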
row,IC50 [nM],SMILES
1,> 1000,"CC1(C)CC(Nc2nc(Nc3ccc(OC4CCN(CC(N)=O)CC4)c(OC(F)F)c3)ncc2F)CC(C)(C)N1 [III-36, 2-(4-(2-(Difluoromethoxy)-4-(5-fluoro-4-(2,2,6,6-tetramethylpiperidin-4-ylamino)pyrimidin-2-ylamino)phenoxy)piperidin-1-yl)acetamide]"
2,< 250,"CN1C(C)(C)CC(Nc2nc(Nc3ccc(OC4CCN(CCO)CC4)c(OC(F)F)c3)ncc2F)CC1(C)C [III-37, 2-(4-(2-(Difluoromethoxy)-4-(5-fluoro-4-(1,2,2,6,6-pentamethylpiperidin-4-ylamino)pyrimidin-2-ylamino)phenoxy)piperidin-1-yl)ethanol]"
3,500 to 1000,"CC1(C)CC(Nc2nc(Nc3ccc(OC4CCN(CCO)CC4)c(OC(F)F)c3)ncc2F)CC(C)(C)N1 [III-38, 2-(4-(2-(Difluoromethoxy)-4-(5-fluoro-4-(2,2,6,6-tetramethylpiperidin-4-ylamino)pyrimidin-2-ylamino)phenoxy)piperidin-1-yl)ethanol]"
4,500 to 1000,"CC(C)N1CC(Oc2ccc(Nc3ncc(F)c(NC4CC(C)(C)NC(C)(C)C4)n3)cc2OC(F)F)C1 [III-39, N2-(3-(Difluoromethoxy)-4-(1-isopropylazetidin-3-yloxy)phenyl)-5-fluoro-N4-(2,2,6,6-tetramethylpiperidin-4-yl)pyrimidine-2,4-diamine]"
5,250 to 500,"CC(C)N1CCCC(Oc2ccc(Nc3ncc(F)c(NC4CC(C)(C)NC(C)(C)C4)n3)cc2OC(F)F)CC1 (centres unmarked) [III-40, N2-(3-(difluoromethoxy)-4-(1-isopropylazepan-4-yloxy)phenyl)-5-fluoro-N4-(2,2,6,6-tetramethylpiperidin-4-yl)pyrimidine-2,4-diamine]"
6,< 250,"CC(C)N1CCCC(Oc2ccc(Nc3ncc(F)c(NC4CC(C)(C)N(C)C(C)(C)C4)n3)cc2OC(F)F)CC1 (centres unmarked) [III-41, N2-(3-(difluoromethoxy)-4-(1-isopropylazepan-4-yloxy)phenyl)-5-fluoro-N4-(1,2,2,6,6-pentamethylpiperidin-4-yl)pyrimidine-2,4-diamine]"
7,500 to 1000,"CC(=O)N1CCCC(Oc2ccc(Nc3ncc(F)c(NC4CC(C)(C)NC(C)(C)C4)n3)cc2OC(F)F)CC1 (centres unmarked) [III-42, 1-(4-(2-(difluoromethoxy)-4-(5-fluoro-4-(2,2,6,6-tetramethylpiperidin-4-ylamino)pyrimidin-2-ylamino)phenoxy)azepan-1-yl)ethanone]"
8,< 250,"CC(=O)N1CCCC(Oc2ccc(Nc3ncc(F)c(NC4CC(C)(C)N(C)C(C)(C)C4)n3)cc2OC(F)F)CC1 (centres unmarked) [III-43, 1-(4-(2-(difluoromethoxy)-4-(5-fluoro-4-(1,2,2,6,6-pentamethylpiperidin-4-ylamino)pyrimidin-2-ylamino)phenoxy)azepan-1-yl)ethanone]"
9,500 to 1000,"CC(=O)N1CCC(Oc2ccc(Nc3ncc(F)c(NC4CC(C)(C)NC(C)(C)C4)n3)cc2OC(F)F)CC1 [III-44, 1-(4-(2-(difluoromethoxy)-4-(5-fluoro-4-(2,2,6,6-tetramethylpiperidin-4-ylamino)pyrimidin-2-ylamino)phenoxy)piperidin-1-yl)ethanone]"
10,250 to 500,"CC(=O)N1CCC(Oc2ccc(Nc3ncc(F)c(NC4CC(C)(C)N(C)C(C)(C)C4)n3)cc2OC(F)F)CC1 [III-45, 1-(4-(2-(difluoromethoxy)-4-(5-fluoro-4-(1,2,2,6,6-pentamethylpiperidin-4-ylamino)pyrimidin-2-ylamino)phenoxy)piperidin-1-yl)ethanone]"
11,500 to 1000,"CC1(C)CC(Nc2nc(Nc3ccc(OC(C)(C)CCN4CCCC4)c(F)c3)ncc2F)CC(C)(C)N1 [III-46, 5-fluoro-N2-(3-fluoro-4-(2-methyl-4-(pyrrolidin-1-yl)butan-2-yloxy)phenyl)-N4-(2,2,6,6-tetramethylpiperidin-4-yl)pyrimidine-2,4-diamine]"
12,500 to 1000,"CN1C(C)(C)CC(Nc2nc(Nc3ccc(OC(C)(C)CCN4CCCC4)c(F)c3)ncc2F)CC1(C)C [III-47, 5-fluoro-N2-(3-fluoro-4-(2-methyl-4-(pyrrolidin-1-yl)butan-2-yloxy)phenyl)-N4-(1,2,2,6,6-pentamethylpiperidin-4-yl)pyrimidine-2,4-diamine]"
13,> 1000,"CC1(C)CC(Nc2nc(Nc3cc(F)c(OC(C)(C)CCN4CCCC4)c(F)c3)ncc2F)CC(C)(C)N1 [III-48, N2-(3,5-difluoro-4-(2-methyl-4-(pyrrolidin-1-yl)butan-2-yloxy)phenyl)-5-fluoro-N4-(2,2,6,6-tetramethylpiperidin-4-yl)pyrimidine-2,4-diamine]"
14,> 1000,"CN1C(C)(C)CC(Nc2nc(Nc3cc(F)c(OC(C)(C)CCN4CCCC4)c(F)c3)ncc2F)CC1(C)C [III-49, N2-(3,5-difluoro-4-(2-methyl-4-(pyrrolidin-1-yl)butan-2-yloxy)phenyl)-5-fluoro-N4-(1,2,2,6,6-pentamethylpiperidin-4-yl)pyrimidine-2,4-diamine]"
15,250 to 500,"CC1(C)CC(Nc2nc(Nc3ccc(OC4CCN(CCF)CC4)c(OC(F)F)c3)ncc2F)CC(C)(C)N1 [III-50, N2-(3-(difluoromethoxy)-4-(1-(2-fluoroethyl)piperidin-4-yloxy)phenyl)-5-fluoro-N4-(2,2,6,6-tetramethylpiperidin-4-yl)pyrimidine-2,4-diamine]"
16,< 250,"CN1C(C)(C)CC(Nc2nc(Nc3ccc(OC4CCN(CCF)CC4)c(OC(F)F)c3)ncc2F)CC1(C)C [III-51, N2-(3-(difluoromethoxy)-4-(1-(2-fluoroethyl)piperidin-4-yloxy)phenyl)-5-fluoro-N4-(1,2,2,6,6-pentamethylpiperidin-4-yl)pyrimidine-2,4-diamine]"
17,250 to 500,"CN1C(C)(C)CC(Nc2nc(Nc3ccc(OC4CCN(Cc5ccccc5)CC4)c(OC(F)F)c3)ncc2F)CC1(C)C [III-52, N2-(4-(1-benzylpiperidin-4-yloxy)-3-(difluoromethoxy)phenyl)-5-fluoro-N4-(1,2,2,6,6-pentamethylpiperidin-4-yl)pyrimidine-2,4-diamine]"
18,500 to 1000,"CC1(C)CC(Nc2nc(Nc3ccc(OC4CCN(CCOCc5ccccc5)CC4)c(F)c3)ncc2F)CC(C)(C)N1 [III-53, N2-(4-(1-(2-(benzyloxy)ethyl)piperidin-4-yloxy)-3-fluorophenyl)-5-fluoro-N4-(2,2,6,6-tetramethylpiperidin-4-yl)pyrimidine-2,4-diamine]"
19,500 to 1000,"CN1C(C)(C)CC(Nc2nc(Nc3ccc(OC4CCN(CCOCc5ccccc5)CC4)c(F)c3)ncc2F)CC1(C)C [III-54, N2-(4-(1-(2-(benzyloxy)ethyl)piperidin-4-yloxy)-3-fluorophenyl)-5-fluoro-N4-(1,2,2,6,6-pentamethylpiperidin-4-yl)pyrimidine-2,4-diamine]"
20,500 to 1000,"CC1(C)CC(Nc2nc(Nc3cc(F)c(OC4CCN(CCOCc5ccccc5)CC4)c(F)c3)ncc2F)CC(C)(C)N1 [III-55, N2-(4-(1-(2-(benzyloxy)ethyl)piperidin-4-yloxy)-3,5-difluorophenyl)-5-fluoro-N4-(2,2,6,6-tetramethylpiperidin-4-yl)pyrimidine-2,4-diamine]"
21,500 to 1000,"CN1C(C)(C)CC(Nc2nc(Nc3cc(F)c(OC4CCN(CCOCc5ccccc5)CC4)c(F)c3)ncc2F)CC1(C)C [III-56, N2-(4-(1-(2-(benzyloxy)ethyl)piperidin-4-yloxy)-3,5-difluorophenyl)-5-fluoro-N4-(1,2,2,6,6-pentamethylpiperidin-4-yl)pyrimidine-2,4-diamine]"
22,> 1000,"CC1(C)CC(Nc2nc(Nc3ccc(OC4CCN(CCO)CC4)c(F)c3)ncc2F)CC(C)(C)N1 [III-57, 2-(4-(2-fluoro-4-(5-fluoro-4-(2,2,6,6-tetramethylpiperidin-4-ylamino)pyrimidin-2-ylamino)phenoxy)piperidin-1-yl)ethanol]"
23,500 to 1000,"CN1C(C)(C)CC(Nc2nc(Nc3ccc(OC4CCN(CCO)CC4)c(F)c3)ncc2F)CC1(C)C [III-58, 2-(4-(2-fluoro-4-(5-fluoro-4-(1,2,2,6,6-pentamethylpiperidin-4-ylamino)pyrimidin-2-ylamino)phenoxy)piperidin-1-yl)ethanol]"
24,> 1000,"CC1(C)CC(Nc2nc(Nc3cc(F)c(OC4CCN(CCO)CC4)c(F)c3)ncc2F)CC(C)(C)N1 [III-59, 2-(4-(2,6-difluoro-4-(5-fluoro-4-(2,2,6,6-tetramethylpiperidin-4-ylamino)pyrimidin-2-ylamino)phenoxy)piperidin-1-yl)ethanol]"
25,250 to 500,"CN1C(C)(C)CC(Nc2nc(Nc3cc(F)c(OC4CCN(CCO)CC4)c(F)c3)ncc2F)CC1(C)C [III-60, 2-(4-(2,6-difluoro-4-(5-fluoro-4-(1,2,2,6,6-pentamethylpiperidin-4-ylamino)pyrimidin-2-ylamino)phenoxy)piperidin-1-yl)ethanol]"
26,> 1000,"CC(C)Nc1cc(Nc2ncc(F)c(NC3CC(C)(C)NC(C)(C)C3)n2)ccc1OC(C)C [III-61, 5-fluoro-N2-(4-isopropoxy-3-(isopropylamino)phenyl)-N4-(2,2,6,6-tetramethylpiperidin-4-yl)pyrimidine-2,4-diamine]"
27,> 1000,"CC(C)Nc1cc(Nc2ncc(F)c(NC3CC(C)(C)N(C)C(C)(C)C3)n2)ccc1OC(C)C [III-62, 5-fluoro-N2-(4-isopropoxy-3-(isopropylamino)phenyl)-N4-(1,2,2,6,6-pentamethylpiperidin-4-yl)pyrimidine-2,4-diamine]"
28,250 to 500,"Cc1ccc(Nc2ncc(F)c(NC3CC(C)(C)NC(C)(C)C3)n2)cc1-c1nnnn1C [III-63, 5-fluoro-N2-(4-methyl-3-(1-methyl-1H-tetrazol-5-yl)phenyl)-N4-(2,2,6,6-tetramethylpiperidin-4-yl)pyrimidine-2,4-diamine]"
29,< 250,"Cc1ccc(Nc2ncc(F)c(NC3CC(C)(C)N(C)C(C)(C)C3)n2)cc1-c1nnnn1C [III-64, 5-fluoro-N2-(4-methyl-3-(1-methyl-1H-tetrazol-5-yl)phenyl)-N4-(1,2,2,6,6-pentamethylpiperidin-4-yl)pyrimidine-2,4-diamine]"
